According to patent publication US9175305B2, “Mutant hydroxyphenylpyruvate dioxygenase polypeptides and methods of use” (Syngenta Participations AG, priority 2009, dated 2015):
“And” between values parts separate entries of the source, which are not always exact repeats. Identical values can stand only once. Like-named read-outs stand apart in the source and are kept apart here.

Legend:
HPPD SEQ ID NO:14 = HPPD SEQ ID NO:14 (Avena sativa, UniProt A0ACD5V6K6, DEL109-109); test: biochemical; format: binding
Sequence of HPPD SEQ ID NO:14 (A0ACD5V6K6 entry or part of it DEL109-109): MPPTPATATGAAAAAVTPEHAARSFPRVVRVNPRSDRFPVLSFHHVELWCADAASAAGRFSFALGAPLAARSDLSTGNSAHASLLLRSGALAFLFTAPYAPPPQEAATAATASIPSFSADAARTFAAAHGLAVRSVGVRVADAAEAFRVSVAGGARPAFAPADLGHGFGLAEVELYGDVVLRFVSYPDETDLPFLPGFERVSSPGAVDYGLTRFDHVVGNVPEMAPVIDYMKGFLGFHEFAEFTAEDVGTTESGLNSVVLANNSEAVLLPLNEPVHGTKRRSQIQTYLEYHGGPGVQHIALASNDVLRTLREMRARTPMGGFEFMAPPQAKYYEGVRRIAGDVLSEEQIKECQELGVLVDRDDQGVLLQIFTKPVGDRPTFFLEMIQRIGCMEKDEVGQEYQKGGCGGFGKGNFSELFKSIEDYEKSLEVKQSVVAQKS
Protocol: (§1) On rates (governed by an association rate constant, kon) for the formation of the enzyme: inhibitor complexes, EI and off rates (governed by a dissociation rate constant, koff) were determined by methods known in the art and essentially as described in Hawkes et al. (2001) Proc. Bright. Crop. Prot. Conf. Weeds, 2:563-568 and in PCT Patent App. Pub. No. WO 02/46387).
(§2) For example, on rates were measured by, at zero time, adding ˜60 pmoles HPPD to 50 mM BisTrisPropane buffer at pH7.0 and at 25° C. containing 25 mM Na ascorbate, 4 μg/ml bovine catalase (Sigma, St. Louis, Mo.) and an excess (˜300 pmoles) of ^14C inhibitor in a total assay volume of 425 μl and, at various time points (0-180 s), quenching the radiolabel binding reaction by addition and rapid mixing of 100 μl ‘cold’ 1 mM structure A. Protein samples quenched at different times were then exchanged into 50 mM BisTrisPropane buffer at pH 7.0 containing 0.1M KCl by rapid chromatography down a NAP5 G25 Sephadex column (GE Healthcare Ltd, Buckinghamshire UK) and the amount of ^14C bound to protein fractions quantified in Optiphase scintillant using a Tri-Carb 2900TR scintillation counter (Perkin Elmer, Wellesley, Mass.). The data were fit according to the scheme below in order to derive the value of the apparent second order rate constant, k2, governing the association rate of enzyme and radiolabelled inhibitor. A range of enzyme and inhibitor concentrations were used. […] Further example methods are described in PCT Patent App. Pub. No. WO 02/46387.
(§3) Off rates (k1 in the scheme below) were derived from exchange rate studies where either the test inhibitor, I, or its exchange partner, J were radiolabelled and the data fit according to the scheme below. As noted in Hawkes et al. (2001) Proc. Bright. Crop. Prot. Conf.
(§4) After 30 minutes the exchange reaction was initiated with addition of 100 μl 1 mM ‘cold’ structure A with thorough mixing, and, immediately, 150 μl were withdrawn and loaded onto a NAP5 column, the protein exchanged into 50 mM BisTrisPropane buffer at pH 7.0 containing 0.1M KCl by rapid (<2 min) chromatography down a NAP5 G25 Sephadex column (GE Healthcare Ltd, Buckinghamshire UK) and the amount of ^14C bound to protein measured by Optiphase scintillant using a Tri-Carb 2900TR scintillation counter (Perkin Elmer, Wellesley, Mass.). Further aliquots were removed and measured in the same way at various times over minutes or hours as required in order to determine the exchange kinetics.
(§5) After 30 minutes the reaction vessel was transferred to ice. After a further 10 minutes at ice temperature the exchange reaction was initiated by addition of 100 μl 1 mM Structure A, with thorough mixing, and 150 μl was withdrawn and loaded onto a NAP5 column in a cold room at ˜5-8° C. in order to quantify the amount of radiolabel remaining bound to the protein at various time from the start of exchange at ice temperature.
(§6) Off rates (k1) of HPPD inhibitors that are not available radiolabelled or that present other measurement problems (for example high levels of background non-specific protein-binding which can be measured as radiolabel binding that persists in the presence of high concentrations of ‘cold’ inhibitor) may be measured indirectly. […] Exemplary methods are also described in PCT Patent App. Pub. No. WO 02/46387.

HPPD SEQ ID NO:15 = HPPD SEQ ID NO:15 (Avena sativa, UniProt A0ACD5V6K6, DEL109-109/Q298A); test: biochemical; format: binding
Sequence of HPPD SEQ ID NO:15 (A0ACD5V6K6 entry or part of it DEL109-109/Q298A): as the sequence (A0ACD5V6K6 entry or part of it DEL109-109) above, with Q297A counted along it
Protocol: as §1, §2, §3, §4, §5, §6

HPPD SEQ ID NO:17 = HPPD SEQ ID NO:17 (Avena sativa, UniProt A0ACD5V6K6, DEL109-109/Q298S); test: biochemical; format: binding
Sequence of HPPD SEQ ID NO:17 (A0ACD5V6K6 entry or part of it DEL109-109/Q298S): as the sequence (A0ACD5V6K6 entry or part of it DEL109-109) above, with Q297S counted along it
Protocol: as §1, §2, §3, §4, §5, §6

HPPD SEQ ID NO:18 = HPPD SEQ ID NO:18 (Avena sativa, UniProt A0ACD5V6K6, DEL109-109/I285T); test: biochemical; format: binding
Sequence of HPPD SEQ ID NO:18 (A0ACD5V6K6 entry or part of it DEL109-109/I285T): as the sequence (A0ACD5V6K6 entry or part of it DEL109-109) above, with I284T counted along it
Protocol: as §1, §2, §3, §4, §5, §6

HPPD SEQ ID NO:21 = HPPD SEQ ID NO:21 (Avena sativa, UniProt A0ACD5V6K6, DEL109-109/I285V); test: biochemical; format: binding
Sequence of HPPD SEQ ID NO:21 (A0ACD5V6K6 entry or part of it DEL109-109/I285V): as the sequence (A0ACD5V6K6 entry or part of it DEL109-109) above, with I284V counted along it
Protocol: as §1, §2, §3, §4, §5, §6

HPPD SEQ ID NO:22 = HPPD SEQ ID NO:22 (Avena sativa, UniProt A0ACD5V6K6, DEL109-109/L256M); test: biochemical; format: binding
Sequence of HPPD SEQ ID NO:22 (A0ACD5V6K6 entry or part of it DEL109-109/L256M): as the sequence (A0ACD5V6K6 entry or part of it DEL109-109) above, with L255M counted along it
Protocol: as §1, §2, §3, §4, §5, §6

HPPD SEQ ID NO:23 = HPPD SEQ ID NO:23 (Avena sativa, UniProt A0ACD5V6K6, A242W/DEL109-109); test: biochemical; format: binding; conditions: read-out: kon (k2)
Sequence of HPPD SEQ ID NO:23 (A0ACD5V6K6 entry or part of it DEL109-109/A242W): as the sequence (A0ACD5V6K6 entry or part of it DEL109-109) above, with A241W counted along it
Protocol: as §1, §2, §3, §4, §5, §6

HPPD SEQ ID NO:25 = HPPD SEQ ID NO:25 (Avena sativa, UniProt A0ACD5V6K6, DEL109-109/L359A); test: biochemical; format: binding
Sequence of HPPD SEQ ID NO:25 (A0ACD5V6K6 entry or part of it DEL109-109/L359A): as the sequence (A0ACD5V6K6 entry or part of it DEL109-109) above, with L358A counted along it
Protocol: as §1, §2, §3, §4, §5, §6

HPPD SEQ ID NO:26 = HPPD SEQ ID NO:26 (Avena sativa, UniProt A0ACD5V6K6, DEL109-109/L256M/L359M); test: biochemical; format: binding; conditions: read-out: koff (k1)
Sequence of HPPD SEQ ID NO:26 (A0ACD5V6K6 entry or part of it DEL109-109/L256M/L359M): as the sequence (A0ACD5V6K6 entry or part of it DEL109-109) above, with L255M, L358M counted along it
Protocol: as §1
For example, on rates were measured by, at zero time, adding ˜60 pmoles HPPD to 50 mM BisTrisPropane buffer at pH7.0 and at 25° C. containing 25 mM Na ascorbate, 4 μg/ml bovine catalase (Sigma, St. Louis, Mo.) and an excess (˜300 pmoles) of ^14C inhibitor in a total assay volume of 425 μl and, at various time points (0-180 s), quenching the radiolabel binding reaction by addition and rapid mixing of 100 μl ‘cold’ 1 mM structure A. Protein samples quenched at different times were then exchanged into 50 mM BisTrisPropane buffer at pH 7.0 containing 0.1M KCl by rapid chromatography down a NAP5 G25 Sephadex column (GE Healthcare Ltd, Buckinghamshire UK) and the amount of ^14C bound to protein fractions quantified in Optiphase scintillant using a Tri-Carb 2900TR scintillation counter (Perkin Elmer, Wellesley, Mass.). The data were fit according to the scheme below in order to derive the value of the apparent second order rate constant, k2, governing the association rate of enzyme and radiolabelled inhibitor. […]

[1] = test system: G408A mutant of HPPD SEQ ID NO:14; test: time course of inhibition of enzyme activity; format: biochemical, Avena sativa; conditions: inhibitor at 0.15 or 0.6 μM
Jack w/t = test: herbicide spray test on soybean; format: in vivo; conditions: C 400 g/ha, V2 growth stage, 14 DAT, average of n=7
Protocol: Each data point represents the average damage score from n=7 replicates.
Plants were in 4×4×4 inch plastic pots and grown under a 15/9 hour light regime (daylight supplemented by artificial light in greenhouses) at a minimum night-time temperature of 18° C. and maximum daytime temperature of 27° C. Soil was regular VBRC mix (1:1 mixture of Vero field soil and Fafard Mix II) where Vero field soil is 98% sand and 2% clay. […] Spray volume was 150 L/ha and the damage scores reflect assessments at 14 DAT.

COCCOCc1nc(C(F)(F)F)ccc1C(=O)C1C(=O)C2CCC(C2)C1=O (stereo not shown) [Structure C]
On rate, activity-based method (HPPD SEQ ID NO:14; 25° C., enzyme activity-based method): 7800 s⁻¹ M⁻¹ and 7600 s⁻¹ M⁻¹ and 7200 s⁻¹ M⁻¹ and 10000 s⁻¹ M⁻¹ | kon (HPPD SEQ ID NO:14; 25° C., enzyme activity-based method, read-out: On rate, activity-based method): 7500 M⁻¹ s⁻¹ | Kd/Km ratio (HPPD SEQ ID NO:14; HPPD SEQ ID NO:14): 0.0017 | Kd (HPPD SEQ ID NO:14; Kd, estimated from on and off rates, 25° C.): 9.4 nM | koff (HPPD SEQ ID NO:14; read-out: koff (k1)): 7.04e-05 s⁻¹ | kon (HPPD SEQ ID NO:14; read-out: kon (k2)): 7500 M⁻¹ s⁻¹ | Kd (HPPD SEQ ID NO:15): 17.7 nM | koff (HPPD SEQ ID NO:15; read-out: koff (k1)): 0.000113 s⁻¹ | kon (HPPD SEQ ID NO:15; read-out: kon (k2)): 7500 M⁻¹ s⁻¹ | Kd (HPPD SEQ ID NO:17): 7.1 nM | koff (HPPD SEQ ID NO:17; read-out: koff (k1)): 6.65e-05 s⁻¹ | kon (HPPD SEQ ID NO:17; read-out: kon (k2)): 9400 M⁻¹ s⁻¹ | Kd (HPPD SEQ ID NO:18): 11.9 nM | koff (HPPD SEQ ID NO:18; read-out: koff (k1)): 9e-05 s⁻¹ | kon (HPPD SEQ ID NO:18; read-out: kon (k2)): 7500 M⁻¹ s⁻¹ | Kd (HPPD SEQ ID NO:21): 11.9 nM | koff (HPPD SEQ ID NO:21; read-out: koff (k1)): 9e-05 s⁻¹ | kon (HPPD SEQ ID NO:21; read-out: kon (k2)): 7500 M⁻¹ s⁻¹ | Kd (HPPD SEQ ID NO:22): 23.9 nM | koff (HPPD SEQ ID NO:22; read-out: koff (k1)): 9e-05 s⁻¹ | kon (HPPD SEQ ID NO:22; read-out: kon (k2)): 4400 M⁻¹ s⁻¹ | kon (HPPD SEQ ID NO:23): 7500 M⁻¹ s⁻¹ | Kd (HPPD SEQ ID NO:25): 23 nM | koff (HPPD SEQ ID NO:25; read-out: koff (k1)): 0.000113 s⁻¹ | kon (HPPD SEQ ID NO:25; read-out: kon (k2)): 4800 M⁻¹ s⁻¹ | koff (HPPD SEQ ID NO:26): 9e-05 s⁻¹ | extent of inhibition compared with the control enzyme [1]: to a lesser extent | % dam. (Jack w/t): 82.1%
